How the values were obtained:
[1] = test system: C9orf72 intron 1; test: C9orf72 intron 1 RT-qPCR in iPSC lines from healthy donors; format: cell-based, human
Description: iPSCs were treated for 4 days in Matrigel (356234, Corning) coated plates with mTeSR™1 feeder-free medium ([…] Technologies; Catalog #85850). Cells were treated in 6-well plates on day 1 and 3 with compounds diluted in 0.1% final DMSO.
Measuring Levels of C9orf72 and C9orf72 Variants by RT-qPCR. LCLs were seeded in 6-well plate (˜10^6 cells in 2 mL of growth medium) and incubated overnight at 37° C. Cells were then treated with various concentrations of compound for 24 h or with G4C2-ASO and Control-ASO (100 nM), delivered by transfection with Lipofectamine RNAiMax. RNA was extracted as described above and the expression of C9orf72 variants was determined by RT-qPCR. For iPSC and iPSC-derived motor neuron cell line, the cells were seeded into Matrigel-coated 6-well plate to ˜60% confluence before treated with 3 μM C9orf72-ASO or Control-ASO and various concentrations of compound for 1 to 2 weeks. For compound treatment well, medium change was performed with fresh compound every 3-4 days. RNA was extracted as described above and the expression of C9orf72 variants was determined by RT-qPCR.

[2] = test system: transcriptome of iPSCs derived from healthy donors; test: RNA-seq in iPSCs from healthy donors; format: cell-based, human; conditions: 50 nM
[3] = test system: r(G4C2)exp-containing intron 1; test: C9orf72 intron 1 RT-qPCR in c9ALS iPSC-derived spinal neurons; format: cell-based, human
Description: iPSCs were differentiated into spinal neuron cells using a previously the previously described direct induced motor neuron (diMNs) differentiation protocol (58) with modifications. Briefly, iPSCs were plated into Matrigel-coated 100 mm dishes (30-40% confluence). Neuroepithelial induction was performed by replacing the iPSC maintenance medium with Stage 1 medium [47.5% IMDM (Iscove's Modified Dulbecco's Medium) medium, 47.5% F12 medium, 1% NEAA (Non-Essential Amino Acid) (Life Technologies), 2% B27 (Invitrogen), 1% N2, 1% PSA (Penicillin-Streptomycin-Amphotericin), 0.2 μM LDN193189 (Stemgent), 10 μM SB431542 ([…] Technologies) and 3 μM CHIR99021 (Sigma-Aldrich)]. After daily medium changes for 6 days, cells were detached with Accutase and seeded into 6-well plates (1.5×10^6 cells/well) in 3 mL Stage 2 medium. Cells were maintained in Stage 2 medium [Stage 1 medium supplemented with 0.1 μM All-trans RA (Sigma-Aldrich) and 1 μM *SAG (Cayman Chemicals)], with daily changes, through Day 11. […]
Measuring Levels of C9orf72 and C9orf72 Variants by RT-qPCR. […] RNA was extracted as described above and the expression of C9orf72 variants was determined by RT-qPCR. […] RNA was extracted as described above and the expression of C9orf72 variants was determined by RT-qPCR.

[4] = test system: r(G4C2)exp-containing nuclear foci; test: RNA FISH of foci in brain of +/+PWR500 mice; format: in vivo, mouse; conditions: compared to vehicle
Description: Therapeutic Efficacy in a c9ALS/FD mouse model. All animal studies were completed as approved by the Scripps Florida Institutional Animal Care and Use Committee. A total of 24 mice (12+/+PWR500 [7 Male and 5 Female] and 12 WT [6 Male and 6 Female]) mice, age- and gender-matched and ranging in age from 18-22 weeks old were used in therapeutic efficacy studies (Table 6). Mice were anesthetized by intraperitoneal (i.p.) injection of 10 mg/mL Ketamine:1 mg/mL Xylazine solution. Intracerebroventricular (ICV) stereotactic injections of 10 μL of 7 (33 nmol) were administered into the right ventricle using the following coordinates: 0.2 mm posterior and 1.0 mm lateral to the right from the bregma and 3 mm deep. Mice were treated with 7 or vehicle consisting of 1% DMSO in Saline. Three weeks post-treatment, mice were euthanized, and tissue was harvested for study.
Fluorescence in situ Hybridization (FISH) with Immunofluorescence (IF). Tissues were excised, and brain tissue was sliced at the midline. The right hemisphere was fresh frozen with OCT in 2-methylbutane in liquid nitrogen, and 10 μm thick sections were prepared using a cryostat. The slides were then stained as previously described (36). […] Average number of foci per nuclei was assessed for each sample and reported. Statistical analysis was measured using an unpaired t-test with Welch's correction.

[5] = test system: c9 patient-derived iPSCs; test: Cell viability; format: cell-based, human; conditions: 1-1000 nM
Description: Cell Viability. Lymphoblastoid cells were seeded in 96-well plate (˜10^4 cells/well) overnight and then treated with compounds for 48 h. The cell viability was measured by CellTiter-Fluor™ Cell Viability Assay per the manufacturer's protocol. For iPSCs, cells (diluted 1:4 after harvesting from a 100 mm dish) were seeded in Matrigel-coated 24-well plate. After 24 h, the compounds were added for 48 h and cell viability was measured by AlamarBlue™ Cell Viability Reagent (DAL1025, Thermo Fisher Scientific) per the manufacturer's protocol.

Structure (SMILES): CCOC(=O)C1=C(Nc2ccccc2)S/C(=C\c2ccc(OCCOCCOCCOCCNC(=O)CCC(=O)N(CCOCCOCCOc3ccc4[nH]c5c(C)c6ccncc6c(C)c5c4c3)CCOCCOCCOc3ccc4[nH]c5c(C)c6ccncc6c(C)c5c4c3)c(O)c2)C1=O [Compound 7]
- C9orf72 intron 1 levels [1]: no effect
- changes in the transcriptome [2]: no changes
- reduction of r(G4C2)exp-containing intron 1 abundance ([3]; 50 nM): 45±11%
- reduction of r(G4C2)exp-containing intron 1 abundance ([3]; 500 nM): 64±10%
- number of r(G4C2)exp-containing nuclear foci ([4]; brain): decreased
- abundance of antisense r(G2C4)exp foci [4]: No effect

Structure (SMILES): Cc1c2ccncc2c(C)c2c1[nH]c1ccc(OCCOCCOCCNCCOCCOCCOc3ccc4[nH]c5c(C)c6ccncc6c(C)c5c4c3)cc12 [Compound 3]
- toxicity [5]: no toxicity

From patent US20230381170A1, “METHOD FOR TREATING ALS/FTD THROUGH DEGRADATION OF RNA REPEAT EXPANSION” (University of Florida Research Foundation, Incorporated, priority 2020, published 2023)
